# Test results: patent EP0313846B1, “Method for controlling chronic respiratory disease, and necrotic enteritis in avian species” (AMERICAN CYANAMID COMPANY, priority 1987, dated 1989)
# Where two headings read alike, the source gives them in different places.
# Columns and labels:
# [1] = test system: Mycoplasma gallisepticum "R"; assay: Minimum inhibitory concentration assay for Mycoplasma gallisepticum (microdilution, Table VI); assay type: cell-based; conditions: Mycoplasmoides gallisepticum
# Method: • 1. […] Both cultures are incubated at 37°C. […] Appropriate solvent controls are also included. • 4.
# [2] = test system: Mycoplasma gallisepticum; assay: Treatment of Mycoplasma gallisepticum caused chronic respiratory disease in poultry; assay type: in vivo; conditions: for Final Mean Body Weight (g) of Survivors / Overall % Mortality / Overall Feed-to-Gain: 7 days pre- and 7 days postchallenge; for Final Mean Body Weight (g) of Survivors / Overall % Mortality / Overall Feed-to-Gain / Mean Air Sac Lesion Scores: M. gallisepticum challenged birds; for Mean Air Sac Lesion Scores: score 0-3
# Method: This study is conducted to evaluate the efficacy of antibiotic LL-E19020α against Mycoplasma gallisepticum caused chronic respiratory disease in poultry. The antibiotic is fed continuously at 10 and 50 g/ton for 7 days pre- and 7 days postchallenge. Birds similarly fed a diet containing 100 g/ton chlortetracycline serve as a positive control group. Infected and noninfected, nonmedicated control groups are also included. After 7 days on respective treatment diets, birds are challenged with M. gallisepticum (MG) into the right and left post-thoracic air sacs. The air sacs are cultured for the presence of Mycoplasma from all birds dying postchallenge. The air sacs of all birds are scored based on gross lesions upon necropsy at death or at study end. Survivors at study end are bled prior to necropsy for Mycoplasma gallisepticum serology testing. Body weight and feed intake measurements are made at specified intervals during the study.
# [3] = test system: Clostridium difficile ATCC 17858; assay: In vitro antibacterial activity, standard agar dilution method (Table II); assay type: cell-based; conditions: 18 hours incubation
# Method: (§1) The in vitro antibacterial activity of LL-E19020α and β was determined against a spectrum of gram-positive and gram-negative bacteria by a standard agar dilution method. Mueller-Hinton agar containing 5% sheep blood and two-fold decreasing concentrations of either LL-E19020α or β were poured into petri dishes. The agar surfaces were inoculated with 1 to 5x10⁴ colony forming units of bacteria by means of the Steers replicating device. The lowest concentration of antibiotic that inhibited growth of a bacterial strain after 18 hours incubation was recorded as the minimal inhibitory concentration for that strain.
# [4] = test system: Peptococcus magnus; assay: as above; assay type: cell-based; conditions: 18 hours incubation
# Method: as §1
# [5] = test system: Streptococcus pneumoniae; assay: as above; assay type: cell-based; conditions: 18 hours incubation
# Method: as §1
# [6] = test system: Streptococcus sp. (β-hemolytic); assay: as above; assay type: cell-based; conditions: 18 hours incubation
# Method: as §1
# [7] = test system: Clostridium perfringens ATCC 13124; assay type: cell-based; conditions: 18 hours incubation
# [8] = test system: Streptococcus pyogenes C203; assay: In vivo antibacterial activity in infected mice (Table III); design: species or system female CD-1 mice; conditions: S. pyogenes C203, mice, 30 minutes before infection
# [9] = test system: Staphylococcus aureus Smith; assay: as above; design: species or system female CD-1 mice; conditions: S. aureus Smith, 30 minutes before infection
# [10] = test system: Pasteurella haemolytica 30660; assay: Pasteurella disk test (primary in vitro disk diffusion test); assay type: cell-based; conditions: disks soaked in 2.5 mg/ml solution of test compound, zones of inhibition
# Method: (§2) Zones of inhibition are recorded.
# [11] = test system: Pasteurella multocida 31081B; assay: as above; assay type: cell-based; conditions: disks soaked in 2.5 mg/ml solution of test compound, zones of inhibition
# Method: as §2
# [12] = test system: Treponema hyodysenteriae; assay: T. hyodysenteriae disk test (primary in vitro disk diffusion test); assay type: cell-based; conditions: disks soaked in 2.5 mg/ml solution, zones of inhibited hemolysis
# [13] = test system: Staphylococcus aureus; assay: Minimum inhibitory concentration by agar dilution (Table V); assay type: cell-based; conditions: Staphylococcus aureus (7 strains tested)
# [14] = test system: Streptococcus pyogenes; assay: as above; assay type: cell-based; conditions: Streptococcus pyogenes (2 strains tested)
# [15] = test system: Streptococcus agalactiae; assay: as above; assay type: cell-based; conditions: Streptococcus agalactiae (4 strains tested)
# [16] = test system: Streptococcus faecalis; assay: as above; assay type: cell-based; conditions: Streptococcus faecalis (1 strain tested)
# [17] = test system: Streptococcus uberis; assay: as above; assay type: cell-based; conditions: Streptococcus uberis (1 strain tested)
# [18] = test system: Escherichia coli; assay: as above; assay type: cell-based; conditions: Escherichia coli (2 strains tested)
# [19] = test system: Salmonella choleraesuis; assay: as above; assay type: cell-based; conditions: Salmonella choleraesuis (2 strains tested)
# [20] = test system: Bordetella bronchiseptica; assay: as above; assay type: cell-based; conditions: Bordetella bronchiseptica (4 strains tested)
# [21] = test system: Pasteurella haemolytica; assay: as above; assay type: cell-based; conditions: Pasteurella haemolytica (3 strains tested)
# [22] = test system: Treponema hyodysenteriae; assay: Minimum inhibitory concentration by microdilution (Table VI); assay type: cell-based
# [23] = test system: Clostridium perfringens type C; assay type: in vivo, broiler chicks; conditions: infected chicks, treatment mean; for Lesion Scores: intestinal lesion score 0-4, day 19
# [24] = 100 g/ton in feed (positive control)
# [25] = single subcutaneous dose 4 mg/kg
# [26] = single subcutaneous dose 16 mg/kg
# [27] = single subcutaneous dose 64 mg/kg
# [28] = Treponema hyodysenteriae B78 (ATCC 27164)
# [29] = Treponema hyodysenteriae B204 (ATCC 31212)
# [30] = 50 grams per ton of feed, Mycoplasma gallisepticum infected chicks
smiles,measurement,setting,value
"CN(C)[C@@H]1C(O)=C(C(N)=O)C(=O)[C@@]2(O)C(O)=C3C(=O)c4c(O)ccc(Cl)c4[C@@](C)(O)[C@H]3C[C@@H]12 [CTC, Chlortetracycline, reference compound]",MIC,[1],0.5 mg/L
same,Final Mean Body Weight (g) of Survivors,[2]; [24],398 g
same,Overall % Mortality,[2]; [24],25.0%
same,Overall Feed-to-Gain,[2]; [24],1.83
same,Mean Air Sac Lesion Scores,[2]; [24],1.88
C/C=C\C=C\[C@@H]1O[C@](O)([C@H](CO[C@H]2C[C@@H](OC)[C@@H](O[C@@H]3C[C@@H](OC)[C@@H](O[C@H]4C[C@H](OC)[C@H](O)[C@H](C)O4)[C@H](C)O3)[C@@H](C)O2)C(=O)NC/C=C/C=C(\C)[C@@H](OC)[C@H](C)[C@H]2C[C@H](O)[C@H](/C=C/C=C/C=C/C(=O)O)O2)[C@H](OC(=O)Cc2ccccc2)[C@H](O)C1(C)C [LL-E19020α],Minimal Inhibitory Concentration,[3],4 µg/mL
same,Minimal Inhibitory Concentration,[4]; Peptococcus magnus ATCC 14956,0.12 µg/mL
same,Minimal Inhibitory Concentration,[4]; Peptococcus magnus ATCC 29328,0.12 µg/mL
same,Minimal Inhibitory Concentration,[5]; Streptococcus pneumoniae SVI,1 µg/mL
same,Minimal Inhibitory Concentration,[5]; Streptococcus pneumoniae VGH-84-56,1 µg/mL
same,Minimal Inhibitory Concentration,[5]; Streptococcus pneumoniae VGH-84-57,2 µg/mL
same,Minimal Inhibitory Concentration,[5]; Streptococcus pneumoniae VGH-84-58,0.25 µg/mL
same,Minimal Inhibitory Concentration,[5]; Streptococcus pneumoniae VGH-84-59,0.25 µg/mL
same,Minimal Inhibitory Concentration,[6]; Streptococcus sp. (β-hemolytic) C203,0.5 µg/mL
same,Minimal Inhibitory Concentration,[6]; Streptococcus sp. (β-hemolytic) VGH-84-60,0.25 µg/mL
same,Minimal Inhibitory Concentration,[6]; Streptococcus sp. (β-hemolytic) VGH-84-61,1 µg/mL
same,Minimal Inhibitory Concentration,[6]; Streptococcus sp. (β-hemolytic) VGH-84-62,1 µg/mL
same,Minimal Inhibitory Concentration,[6]; Streptococcus sp. (β-hemolytic) VGH-84-63,0.12 µg/mL
same,Minimal Inhibitory Concentration,[6]; Streptococcus sp. (β-hemolytic) VGH-84-64,0.12 µg/mL
same,Minimal Inhibitory Concentration,[7],16 µg/mL
same,Survival Ratios 7 Days After Infection,[8]; [25],2/5
same,Survival Ratios 7 Days After Infection,[8]; single subcutaneous dose 8 mg/kg,4/5
same,Survival Ratios 7 Days After Infection,[8]; [26],5/5
same,Survival Ratios 7 Days After Infection,[8]; single subcutaneous dose 32 mg/kg,5/5
same,Survival Ratios 7 Days After Infection,[8]; [27],5/5
same,Survival Ratios 7 Days After Infection,[9]; [25],2/5
same,Survival Ratios 7 Days After Infection,[9]; [26],3/5
same,Survival Ratios 7 Days After Infection,[9]; [27],3/5
same,Survival Ratios 7 Days After Infection,[9]; single subcutaneous dose 256 mg/kg,3/5
same,ZONE SIZE,[10],13 mm
same,ZONE SIZE,[11],15 mm
same,ZONE SIZE,[12]; [28],0 mm
same,ZONE SIZE,[12]; [29],15 mm
same,MIC,[13],≧256 µg/ml
same,MIC,[14],2 mg/L
same,MIC,[15],2 to 8 mg/L
same,MIC,[16],8 mg/L
same,MIC,[17],8 mg/L
same,MIC,[18],≧256 µg/ml
same,MIC,[19],>256 mg/L
same,MIC,[20],>256 mg/L
same,MIC,[21],16 mg/L
same,MIC,[22]; [28],1 mg/L
same,MIC,[22]; [29],1 mg/L
same,% Mortality,[23]; 5 ppm,2.5%
same,Feed/Gain,[23]; 5 ppm,1.97
same,Final Weight,[23]; 5 ppm,639.2
same,Lesion Scores,[23]; 5 ppm,0.35
same,% Mortality,[23]; 50 ppm,2.5%
same,Feed/Gain,[23]; 50 ppm,1.80
same,Final Weight,[23]; 50 ppm,699.4
same,Lesion Scores,[23]; 50 ppm,0.38
same,Final Mean Body Weight (g) of Survivors,[2]; 10 g/ton in feed,336 g
same,Overall % Mortality,[2]; 10 g/ton in feed,41.3%
same,Overall Feed-to-Gain,[2]; 10 g/ton in feed,1.88
same,Mean Air Sac Lesion Scores,[2]; 10 g/ton in feed,2.04
same,Final Mean Body Weight (g) of Survivors,[2]; 50 g/ton in feed,349 g
same,Overall % Mortality,[2]; 50 g/ton in feed,36.3%
same,Overall Feed-to-Gain,[2]; 50 g/ton in feed,1.84
same,Mean Air Sac Lesion Scores,[2]; 50 g/ton in feed,2.11
same,feed to gain ratios compared with infected nonmedicated chicks,[2]; [30],better feed to gain ratios
same,mortality compared with infected nonmedicated chicks,[2]; [30],less mortality
same,weight gain compared with infected nonmedicated chicks,[2]; [30],better weight gain
